“Also recorded” adds a separate entry of the source.
Columns and labels:
[1] = target: T1, PilACt (truncated PilA, residues 32–208) (Myxococcus xanthus, UniProt Q59589); experiment: Surface plasmon resonance (SPR, Biacore T200), carbohydrates over immobilized PilACt; assay type: binding; conditions: for Kd: KD (SPR, PilACt)
T1 construct: a truncated variant (PilACt) spanning residues 32–208; His tag; made in house; host or cells: E. coli BL21 (DE3)
Text: We therefore employed surface plasmon resonance (SPR) on a Biacore system to quantitatively evaluate EPS-PilA binding ([48]), using immobilized PilACt as the ligand. […] Due to the insoluble nature of I-EPS and the risk of clogging the microfluidic channels, it was excluded from further SPR analyses.
(§1) ITC power compensation analyses ([50]) confirmed negligible enthalpy changes during titrations, ruling out nonspecific binding events (Fig. S3B and S4B). […] Given the presence of ManNAc in M. xanthus EPS, we further analyzed its deacetylated derivative, mannosamine (ManN).
The binding affinity of carbohydrates to PilACt and its mutants was determined by SPR measurements at 25°C using Biacore T200 (Cytiva, USA) in PBS buffer. The purified PilACt or its mutants (10 µg/mL in 10 mM sodium acetate, pH 4.5) were immobilized on the CM5 chips (Cytiva, USA) via amine coupling. Unreacted sites were blocked with 1.0 M ethanolamine-HCl (pH 8.5). Flow path 1 or path 3 was used as an activated blank control for subtraction. In all interaction experiments, analytes were injected at a flow rate of 30 µL/min for 180 s, with gradient concentrations programmed from low to high. After injection, dissociation was allowed to occur with the buffer flow for 300 s to facilitate chip regeneration. The resulting curves were corrected and fitted to the steady-state model using Biacore evaluation software (version 3.0, Cytiva, USA) to determine the dissociation constant (KD) values.

PilACt = target: T2, PilACt (Myxococcus xanthus, UniProt Q59589); experiment: Isothermal titration calorimetry (ITC), carbohydrates titrated into PilACt; assay type: binding
T2 construct: a truncated variant (PilACt) spanning residues 32–208; His tag; made in house; host or cells: E. coli BL21 (DE3)
Description: as §1
The calorimetric data for the binding of PilACt and its mutants to carbohydrates were measured at 25°C using a MicroCal PEAQ-ITC system (Malvern Instruments, United Kingdom). The carbohydrates, PilACt, and its mutants were dissolved in the PBS buffer. A 300 µL aliquot of protein solution was placed in the sample cell, followed by 19 sequential 2 µL injections of carbohydrates from a syringe stock solution into the sample cell. The injection interval was 150 s, and the agitation speed was set at 750 rpm. A control titration, in which carbohydrates were injected into PBS buffer under the same conditions, was performed to measure the heat of mixing and dilutions, which was then subtracted from the titration results involving the protein. Raw data were imported into MicroCal PEAQ-ITC analysis software (Version 1.1.01262) and corrected by subtracting the equivalent dilution heats of control titration. Integration of the area under each, along with deduction of the heat of dilution, yielded a thermogram of the molecular interaction between carbohydrates and PilACt or its mutants.

M. xanthus DK1622 cells = system: M. xanthus DK1622 cells; parameters: method as in PMID 12704238; conditions: DK1622 cells ref 15; cited from earlier work
PilACt-F186A = target: T3, PilACt-F186A (Myxococcus xanthus, UniProt Q59589, F186A); experiment: SPR, carbohydrates over immobilized PilACt-F186A; assay type: binding
T3 construct: a truncated variant (PilACt) spanning residues 32–208; His tag; made in house; host or cells: E. coli (BL21 (DE3) is named only for the other PilACt variants)
Text: (§2) To functionally validate the role of W146, a W146A substitution mutant (PilA-W146A) was generated through AlphaFold2-based structural modeling of PilA (Fig. 4A). Structural alignment confirmed the mutant retained a tertiary structure indistinguishable from wild-type PilA (WT PilA; Fig. 4B), indicating the W146A substitution caused no global structural perturbations. […] However, the mutation induced localized instability, manifested by premature GlcN dissociation (4 ns) and excessive ligand RMSD fluctuations (>6 nm; Fig. 4C and D; Movie S4). […] To quantify binding effects, a single-residue PilACt variant (PilACt-W146A) was analyzed for EPS/GlcN affinity. […] To assess broader aromatic residue contributions, four additional PilA aromatic residues (Y69, W181, F164, and F186) were individually substituted with alanine. The PilACt-F164A mutant underwent intracellular degradation, likely due to structural instability, precluding heterologous expression.
(§3) The binding affinity of carbohydrates to PilACt and its mutants was determined by SPR measurements at 25°C using Biacore T200 (Cytiva, USA) in PBS buffer. […]
(§4) Fig S11. […] The binding affinity of single-residue variants PilACt-Y69A, PilACt-W181A, and PilACt-F186A to S-EPS (A) and GlcN (B) was evaluated by SPR analysis. Representative sensorgram and calculated KD values are shown. […]

PilACt-W181A = target: T4, PilACt-W181A (Myxococcus xanthus, UniProt Q59589, W181A); experiment: SPR, carbohydrates over immobilized PilACt-W181A; assay type: binding
T4 construct: a truncated variant (PilACt) spanning residues 32–208; His tag; made in house; host or cells: E. coli BL21 (DE3)
Text: as §2, §3, §4

[2] = Zeta potential measurement; assay type: physicochemical
Description: GlcN and PilACt were diluted in PBS buffer, and the solutions were adjusted to a suitable pH (6, 7.6, and 9) using either HCl or NaOH. The zeta (ζ) potential of GlcN (0.5 mg/mL) and PilACt (1 mg/mL) solutions was measured using UV-grade cuvettes with a Zetasizer NanoZS90 (Malvern Instruments, United Kingdom). For each measurement, 1 mL of the sample was injected into a folded capillary cell. All experiments were conducted in triplicate.

PilACt-Y69A = target: T5, PilACt-Y69A (Myxococcus xanthus, UniProt Q59589, Y69A); experiment: SPR, carbohydrates over immobilized PilACt-Y69A; assay type: binding
T5 construct: a truncated variant (PilACt) spanning residues 32–208; His tag; made in house; host or cells: E. coli BL21 (DE3)
Text: as §2, §3, §4

[3] = amine group of GlcN; no reference given; cited from earlier work
PilACt-W146A = target: T6, PilACt-W146A (Myxococcus xanthus, UniProt Q59589, W146A); experiment: SPR, carbohydrates over immobilized PilACt-W146A; assay type: binding; conditions: 25°C, PBS
T6 construct: a truncated variant (PilACt) spanning residues 32–208; His tag; made in house; host or cells: E. coli BL21 (DE3)
Text: as §2
The binding affinity of carbohydrates to PilACt and its mutants was determined by SPR measurements at 25°C using Biacore T200 (Cytiva, USA) in PBS buffer. The purified PilACt or its mutants (10 µg/mL in 10 mM sodium acetate, pH 4.5) were immobilized on the CM5 chips (Cytiva, USA) via amine coupling. Unreacted sites were blocked with 1.0 M ethanolamine-HCl (pH 8.5). Flow path 1 or path 3 was used as an activated blank control for subtraction. […]

T1 sequence (Q59589 44-220): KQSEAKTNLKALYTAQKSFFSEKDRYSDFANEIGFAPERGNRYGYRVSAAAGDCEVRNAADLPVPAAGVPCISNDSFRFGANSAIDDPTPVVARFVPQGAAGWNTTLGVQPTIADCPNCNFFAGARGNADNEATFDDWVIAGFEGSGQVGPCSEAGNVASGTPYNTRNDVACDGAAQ
T2 sequence (Q59589 44-220): as above
T6 sequence (Q59589 44-220 W146A): as the sequence (Q59589 44-220) above, with W103A counted along it
T4 sequence (Q59589 44-220 W181A): as the sequence (Q59589 44-220) above, with W138A counted along it
T5 sequence (Q59589 44-220 Y69A): as the sequence (Q59589 44-220) above, with Y26A counted along it
T3 sequence (Q59589 44-220 F186A): as the sequence (Q59589 44-220) above, with F143A counted along it

Row | Structure (SMILES) | binding to PilACt by SPR ([1]; tested concentrations 31.25–1,000 µM) | binding to PilACt by ITC (PilACt; 25°C, PBS) | piliation phenotype (surface pili) (M. xanthus DK1622 cells) | binding affinity relative to WT PilACt (SPR) (PilACt-F186A) | binding affinity relative to WT PilACt (SPR) (PilACt-W181A) | Kd ([1]; pH 9) [µM] | Kd ([1]; steady-state fit, 25°C, PBS buffer, pH 7.6) [µM] | zeta potential ([2]; pH 6, PBS) | zeta potential ([2]; pH 7.6, PBS) [mV] | binding affinity relative to WT PilACt (SPR) (PilACt-Y69A) | Kd (PilACt) [µM] | stoichiometry n (ITC) (PilACt; 25°C, PBS, pH 7.6) | pKa [3] | binding to PilACt-W146A by SPR (PilACt-W146A)
1 | CC(=O)N[C@@H]1[C@@H](O)[C@H](O)[C@@H](CO)O[C@H]1O [GlcNAc, N-acetyl-glucosamine] | undetectable | undetectable | hyperpiliation |  |  |  |  |  |  |  |  |  |  | 
2 | N[C@H]1C(O)O[C@H](CO)[C@@H](O)[C@@H]1O (stereo partly drawn) [GlcN, glucosamine] |  |  | hyperpiliation | indistinguishable from WT | indistinguishable from WT | 87 | 203 | +2.43 mV | 1.09 | indistinguishable from WT | 300 | 1.47 | ~ 7.58 | undetectable; also recorded: No binding

Source: paper PMC12691611, “Aromatic residue Trp146 mediates dynamic interplay between type IVa pili and exopolysaccharide in social motility of Myxococcus xanthus” (mBio, 2025)
